The assay relates to CD2F1 mice, L1210 leukemia ip, survival T/C. Nature of the assay: NCI In Vivo Anticancer Drug Screen. Data for tumor model L1210 Leukemia (intraperitoneal) in CD2F1 (CDF1) mice. As to conditions: higher = longer survival. The gist of the method: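 Compound-dosed mice with transplantable tumor versus matched vehicle controls; endpoint ratio T/C reported.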
Setting [1] is: endpoint: mean survival time, dose: 25.0 mg/kg/injection, schedule: Q01DX005 (ip), vehicle: water.
Setting [2] is: endpoint: mean survival time, dose: 50.0 mg/kg/injection, schedule: Q01DX005 (ip), vehicle: water.
Where [3] appears, read: endpoint: mean survival time, dose: 100.0 mg/kg/injection, schedule: Q01DX005 (ip), vehicle: water.
Where [4] appears, read: endpoint: mean survival time, dose: 100.0 mg/kg/injection, schedule: Q04DX002 (ip), vehicle: saline with Tween-80.
Setting [5] is: endpoint: mean survival time, dose: 200.0 mg/kg/injection, schedule: Q04DX002 (ip), vehicle: saline with Tween-80.
[6] abbreviates: endpoint: mean survival time, dose: 400.0 mg/kg/injection, schedule: Q04DX002 (ip), vehicle: saline with Tween-80.
[7] abbreviates: endpoint: mean survival time, dose: 100.0 mg/kg/injection, schedule: Q04DX003 (ip), vehicle: saline with Tween-80.
Setting [8] is: endpoint: mean survival time, dose: 200.0 mg/kg/injection, schedule: Q04DX003 (ip), vehicle: saline with Tween-80.
Where [9] appears, read: endpoint: mean survival time, dose: 400.0 mg/kg/injection, schedule: Q04DX003 (ip), vehicle: saline with Tween-80.
Where [10] appears, read: endpoint: mean survival time, dose: 100.0 mg/kg/injection, schedule: Q01DX009 (ip), vehicle: saline with Tween-80.
Where [11] appears, read: endpoint: mean survival time, dose: 200.0 mg/kg/injection, schedule: Q01DX009 (ip), vehicle: saline with Tween-80.
[12] abbreviates: endpoint: mean survival time, dose: 400.0 mg/kg/injection, schedule: Q01DX009 (ip), vehicle: saline with Tween-80.

Where “and” joins values, the source holds several entries; their conditions need not be identical. Equal values may be shown once. Toxic doses and inconclusive results are not listed.

Regarding `ClCCc1cnc[nH]1`, the T/C is 104 % of control under setting [1], 101 % of control under setting [2] and 105 % of control under setting [3].

For `CC(=O)OC(Cc1ccc(Cl)cc1)c1ccc(Cl)cc1` (centres undefined), the T/C by setting is: (endpoint: mean survival time, dose: 50.0 mg/kg/injection, schedule: Q04DX002 (ip), vehicle: saline with Tween-80) 96 % of control; under setting [4], 96 % of control; under setting [5], 90 % of control; under setting [6], 90 % of control.

On to `NC1=NC(=O)/C(=C/c2ccccc2)S1`, for which the T/C under setting [7] was 93 % of control, the T/C under setting [8] is 97 % of control and the T/C under setting [9] is 97 % of control.

Turning to `C=C[Si](c1ccccc1)(c1ccccc1)c1ccccc1`, the T/C (endpoint: mean survival time, dose: 75.0 mg/kg/injection, schedule: Q04DX003 (ip), vehicle: saline) was 95 % of control; the T/C (endpoint: mean survival time, dose: 150.0 mg/kg/injection, schedule: Q04DX003 (ip), vehicle: saline) is 97 % of control; the T/C (endpoint: mean survival time, dose: 300.0 mg/kg/injection, schedule: Q04DX003 (ip), vehicle: saline) is 97 % of control.

With `C=CCS(=O)(=O)Cc1ccc([N+](=O)[O-])cc1`, the T/C was 105 % of control (endpoint: mean survival time, dose: 100.0 mg/kg/injection, schedule: Q04DX002 (ip), vehicle: Klucel (hydroxypropylcellulose) (HPC)); 94 % of control (endpoint: mean survival time, dose: 200.0 mg/kg/injection, schedule: Q04DX002 (ip), vehicle: Klucel (hydroxypropylcellulose) (HPC)); 105 % of control (endpoint: mean survival time, dose: 400.0 mg/kg/injection, schedule: Q04DX002 (ip), vehicle: Klucel (hydroxypropylcellulose) (HPC)).

Take `CCOC(=O)CCCSc1nn(C2OC(CO)C(O)C2O)c(=O)[nH]c1=O` (centres undefined): the T/C (endpoint: mean survival time, dose: 12.5 mg/kg/injection, schedule: Q01DX005 (ip), vehicle: water) is 101 % of control; the T/C under setting [1] was 101 % of control; the T/C under setting [2] was 101 % of control; the T/C under setting [3] was 98 % of control; the T/C (endpoint: mean survival time, dose: 200.0 mg/kg/injection, schedule: Q01DX005 (ip), vehicle: water) was 104 % of control.

`COC(=O)C(N)Cc1ccc(O)c(O)c1` (centres undefined): the T/C is 101 % of control and 107 % of control (endpoint: mean survival time, dose: 12.5 mg/kg/injection, schedule: Q01DX009 (ip), vehicle: saline); 101 % of control and 107 % of control (endpoint: mean survival time, dose: 25.0 mg/kg/injection, schedule: Q01DX009 (ip), vehicle: saline); 95 % of control and 103 % of control (endpoint: mean survival time, dose: 50.0 mg/kg/injection, schedule: Q01DX009 (ip), vehicle: saline); 94 % of control and 103 % of control and 107 % of control (endpoint: mean survival time, dose: 100.0 mg/kg/injection, schedule: Q01DX009 (ip), vehicle: saline); 113 % of control and 101 % of control and 110 % of control (endpoint: mean survival time, dose: 200.0 mg/kg/injection, schedule: Q01DX009 (ip), vehicle: saline); 117 % of control and 110 % of control (2×) (endpoint: mean survival time, dose: 400.0 mg/kg/injection, schedule: Q01DX009 (ip), vehicle: saline). Further, under “endpoint: mean survival time, dose: 800.0 mg/kg/injection, schedule: Q01DX009 (ip), vehicle: saline”, the T/C was 116 % of control and 123 % of control.

As for `C/C(=C\Cl)CO`, the T/C reads like this: (endpoint: mean survival time, dose: 50.0 mg/kg/injection, schedule: Q01DX009 (ip), vehicle: acetone) 100 % of control; (endpoint: mean survival time, dose: 100.0 mg/kg/injection, schedule: Q01DX009 (ip), vehicle: acetone) 106 % of control.

On to `NNC(=O)Nc1ccccc1`, for which the T/C reads like this: (endpoint: mean survival time, dose: 6.25 mg/kg/injection, schedule: Q01DX001 (ip), vehicle: saline with Tween-80) 102 % of control; (endpoint: mean survival time, dose: 12.5 mg/kg/injection, schedule: Q01DX001 (ip), vehicle: saline with Tween-80) 102 % of control; (endpoint: mean survival time, dose: 25.0 mg/kg/injection, schedule: Q01DX001 (ip), vehicle: saline with Tween-80) 97 % of control.

As to `CC(=O)NC(CC(C)C)C(=O)O.CC(=O)NC(CC(C)C)C(=O)O.[NH-]C1CCCCC1[NH-].[Pt+2]` (centres undefined), the T/C reads like this: (endpoint: median survival time, dose: 3.12 mg/kg/injection, schedule: Q04DX003 (ip), vehicle: saline) 97 % of control; (endpoint: median survival time, dose: 6.25 mg/kg/injection, schedule: Q04DX003 (ip), vehicle: saline) 100 % of control; (endpoint: median survival time, dose: 12.5 mg/kg/injection, schedule: Q04DX003 (ip), vehicle: saline) 97 % of control; (endpoint: median survival time, dose: 25.0 mg/kg/injection, schedule: Q04DX003 (ip), vehicle: saline) 100 % of control; (endpoint: median survival time, dose: 50.0 mg/kg/injection, schedule: Q04DX003 (ip), vehicle: saline) 104 % of control; (endpoint: median survival time, dose: 100.0 mg/kg/injection, schedule: Q04DX003 (ip), vehicle: saline) 105 % of control. Further, the T/C (endpoint: median survival time, dose: 200.0 mg/kg/injection, schedule: Q04DX003 (ip), vehicle: saline) is 108 % of control.

Turning to `CCOc1ccccc1OC(=O)Nc1ccccc1OC`, the T/C was 106 % of control under setting [4], 88 % of control under setting [5] and 100 % of control under setting [6].

`CCCCC1C/C=C/C=C/C=C/C=C/C(OC2OC(C)C(O)C(N)C2O)CC2OC(O)(CC(O)CC3OC3/C=C/C(=O)O1)CC(O)C2C(=O)O` (centres undefined): the T/C reads like this: (endpoint: mean survival time, dose: 3.5 mg/kg/injection, schedule: Q01DX009 (ip), vehicle: saline sonified) 104 % of control; (endpoint: mean survival time, dose: 3.5 mg/kg/injection, schedule: Q04DX003 (ip), vehicle: saline sonified) 91 % of control; (endpoint: mean survival time, dose: 7.0 mg/kg/injection, schedule: Q01DX009 (ip), vehicle: saline sonified) 101 % of control; (endpoint: mean survival time, dose: 7.0 mg/kg/injection, schedule: Q04DX003 (ip), vehicle: saline sonified) 93 % of control; (endpoint: mean survival time, dose: 14.0 mg/kg/injection, schedule: Q01DX009 (ip), vehicle: saline sonified) 87 % of control; (endpoint: mean survival time, dose: 14.0 mg/kg/injection, schedule: Q04DX003 (ip), vehicle: saline sonified) 91 % of control.

Regarding `CCOC(=O)C(Cc1ccc(OC)c(OC)c1)C(Cc1ccc(OC)c(OC)c1)C(=O)OCC` (centres undefined), the T/C by setting is: under setting [10], 96 % of control; under setting [7], 95 % of control; under setting [11], 95 % of control; under setting [8], 93 % of control; under setting [12], 96 % of control; under setting [9], 87 % of control.

As for `CC([NH-])CC(C)[NH-].O=[N+]([O-])O.O=[N+]([O-])O.[Pt+2]` (centres undefined), the T/C is, setting by setting: (endpoint: mean survival time, dose: 6.25 mg/kg/injection, schedule: Q04DX003 (ip), vehicle: saline) 154 % of control; (endpoint: mean survival time, dose: 12.5 mg/kg/injection, schedule: Q04DX003 (ip), vehicle: saline) 247 % of control; (endpoint: mean survival time, dose: 25.0 mg/kg/injection, schedule: Q04DX003 (ip), vehicle: saline) 207 % of control.

With `CC(=O)Nc1ncc(C)s1`, the T/C by setting is: under setting [10], 102 % of control; under setting [7], 97 % of control; under setting [11], 104 % of control; under setting [8], 101 % of control; under setting [12], 95 % of control; under setting [9], 101 % of control.

On to `NC(=O)/C=C/C(N)=O`, for which the T/C under setting [10] was 98 % of control and the T/C under setting [11] is 98 % of control.

On to `Cc1[nH]c2ccc([N+](=O)[O-])cc2c1CN(C)C`, for which the T/C is 96 % of control (endpoint: mean survival time, dose: 75.0 mg/kg/injection, schedule: Q01DX001 (ip), vehicle: saline) and 100 % of control (endpoint: mean survival time, dose: 150.0 mg/kg/injection, schedule: Q01DX001 (ip), vehicle: saline).

`C(=N\N=C\C1CCc2ccccc21)/c1ccco1` (centres undefined): the T/C is 88 % of control under setting [10]; 94 % of control under setting [7]; 93 % of control under setting [8]; 88 % of control under setting [12]; 87 % of control under setting [9].

Consider `O=C(c1ccccc1)C(Br)C(Br)c1ccc([N+](=O)[O-])cc1` (centres undefined), for which the T/C is 89 % of control under setting [4], 101 % of control under setting [5] and 101 % of control under setting [6].

Take `O=c1[nH]c(-c2ccccc2)nc(-c2ccccc2)c1Cc1cc2c(cc1O)OCC2`: the T/C reads like this: (endpoint: mean survival time, dose: 100.0 mg/kg/injection, schedule: Q01DX001 (ip), vehicle: saline) 103 % of control; (endpoint: mean survival time, dose: 200.0 mg/kg/injection, schedule: Q01DX001 (ip), vehicle: saline) 92 % of control; (endpoint: mean survival time, dose: 400.0 mg/kg/injection, schedule: Q01DX001 (ip), vehicle: saline) 92 % of control.

On to `FC(F)(F)c1ccc2nc(CI)c(CI)nc2c1`, for which the T/C is 104 % of control (endpoint: mean survival time, dose: 1.5 mg/kg/injection, schedule: Q01DX009 (ip), vehicle: saline with Tween-80); 110 % of control (endpoint: mean survival time, dose: 3.0 mg/kg/injection, schedule: Q01DX009 (ip), vehicle: saline with Tween-80); 96 % of control (endpoint: mean survival time, dose: 6.0 mg/kg/injection, schedule: Q01DX009 (ip), vehicle: saline with Tween-80); 104 % of control (endpoint: mean survival time, dose: 12.0 mg/kg/injection, schedule: Q01DX009 (ip), vehicle: saline with Tween-80); 88 % of control (endpoint: mean survival time, dose: 24.0 mg/kg/injection, schedule: Q01DX009 (ip), vehicle: saline with Tween-80).
